Results taken from patent US20260234188A1, “CHEMOKINE-BINDING PEPTIDES” (Oxford University Innovation Limited, priority 2022, published 2026).
Ends that are not written are not given here. Peptide text beside a SMILES is read from it.

Legend:
CXCL6 = molecular target: T1, CXCL6 (Homo sapiens, UniProt P80162); test: cell-based; settings: HD2 mutant peptides 10 μM, chemokine at EC80
T1 sequence (P80162 38-114): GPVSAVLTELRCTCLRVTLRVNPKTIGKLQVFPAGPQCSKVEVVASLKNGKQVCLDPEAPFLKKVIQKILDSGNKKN
Method: FIG. 11. […] Technical replicates are shown as individual data points. […] The response curve (solid blue line) and its 95% confidence interval (grey ribbon) were calculated using a 4-parameter log-logistic plot.
(§1) The J:CXCR1 cell line was generated by transfecting Jurkat cells by electroporation with PvuI-linearized plasmid D1398 and selecting with blasticidin (Sigma-Aldrich, Cat #203350, […]). […] J:CXCR1 cells were cultured in RPMI-1640 media (Gibco), supplemented with 10% FBS and 5 mM L-Glutamine with blasticidin. For J:CXCR1 migration assays, 300,000 cells/well were added to the top chamber of a 3 μm Transwell insert (Corning) in 50 μL of migration media (RPMI-1640, 0.5% FBS, 4 mM L-Glutamine, 0.05% DMSO). The bottom chamber contained 150 μL of chemokine, with or without peptide. Cells were migrated at 37° C. in 5% CO2 for 4 hours. The plate was incubated on a shaking platform for 10 minutes, 800 rpm, at 37° C., and 150 μL from the bottom of the plate transferred into a U-bottom plate containing 50 μL of migration media. Cell counts were determined by Attune NxT Flow Cytometer Plate Reader (ThermoFisher), based on cell size parameters FSC-H/SSC-H. Experiments were performed in 3 technical and 3 biological replicates. THP-1 migration assays were carried out using methods known in the art. Activated T-cell assays were carried out using methods known in the art, with the following modifications in the isolation process. Peripheral blood cells were obtained from leucocyte cones (NHS Blood Transfusion Services), following which, T-cells were isolated using two rounds of human CD8+ T-cell isolation kit (480011, BioLegend). At day 10 after activation, T-cells were frozen at 20 E6 cells/ml in TexMACS medium supplemented with 10% DMSO (D2650, Sigma) in liquid nitrogen. Prior to use, activated T-cells were recovered for 24 hours in TexMACs medium at 0.3 E6 cells/ml and incubated at 37° C. in 5% CO2. Chemokine sources are described in Supplementary information Table 3. Statistical significances between control experimental groups was evaluated using Dunnett's test. IC50 experiments were performed at the EC80 dose of chemokine. EC80 was calculated by fitting a chemokine dose-response curve with 3 parameters (fixing the top to 100%). IC50 was calculated by fitting an inhibitor response curve with 4 parameters.
(§2) Migration assays using THP1, activated T-cell (ATC) and J:CXCR1 (Jurkat cells stably transfected with CXCR1 receptor) were performed as described previously. IC50 experiments were performed at the EC80 dose of chemokine. EC80 was calculated by fitting a chemokine dose-response curve with 3 parameters (fixing the top to 100%). IC50 was calculated by fitting an inhibitor response curve with 4 parameters. R-packages used were ggupset_0.3.0, DescTools_0.99.44, and drc_3.0-1.

CXCL9 = molecular target: T2, CXCL9 (Homo sapiens, UniProt Q07325); test: CXCL9-induced activated T-cell migration, transwell assay; assay type: cell-based; settings: HD2 mutant peptides 10 μM, chemokine at EC80
T2 construct: purchased Peprotech
T2 sequence (Q07325 23-125): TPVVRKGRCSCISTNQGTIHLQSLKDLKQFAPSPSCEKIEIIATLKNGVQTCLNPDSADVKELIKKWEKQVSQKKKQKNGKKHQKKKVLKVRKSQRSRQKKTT
Method: (§3) FIG. 2. […] BK1.2 is described in (Darlot, 2020). […] Chemokines used are indicated by the name, followed in parenthesis by the supplier code (P in supplier code indicates Peprotech). […] All experiments were performed at EC80 doses of indicated chemokine. Data are shown as box-whisker plots of three technical and three biological replicates. Statistically significant differences (compared to control, indicated by #), using Dunnett's test with correction for multiple comparisons, are indicated by asterisks: ****=P≤0.0001, ***=P≤0.001, **=P≤0.01, *=P≤0.05.
(§4) Briefly, cell migration assays use THP1 cells (human monocyte) and primary human buffy coat white cells (consisting of neutrophil granulocytes, monocytes, and lymphocytes), and activated T-cells. THP1 cells and primary monocytes respond to CCL2, CCL3, CCL5, CCL8 and CXCL4, granulocytes to CXCL1 and CXCL8, activated T-cells to CXCL9/10/11. Assays are performed in 96-well Boyden chambers, and migrated cells counted and characterized using and ATTUNE Flow Cytometer as described. Triplicate assays are performed at the EC80 dose of each chemokine at 10 μM peptide concentration.
as §1

CXCL12 = CXCL12 (Homo sapiens, UniProt P48061); assay type: cell-based; parameters: activity in inhibiting migration of activated T cells in comparison to HD2_Y5W: dose or concentration left out as unconfirmed; settings: chemokine at EC80; for chemotaxis compared with the parental HD2 peptide: HD2 mutant peptides 10 μM
Method: FIG. 22. Effect of selected combinatorial HD2 mutations on chemotaxis. FIG. 22A. Box-whisker plot showing the effect of the exemplar single and combinatorically mutant (CM) HD2 peptides on activated-T cell (ATC) migration induced by CXCL12. All experiments were performed as at least three technical and three biological replicates, and individual data points are indicated. […] HD2SCR is a scrambled version of HD2. […] Statistically significant differences (compared to control, HD2_Y5W, coloured blue), using Dunnett's test with correction for multiple comparisons, are indicated by asterisks: ****=P≤0.0001, ***=P≤0.001, **=P≤0.01, *=P≤0.05. All comparisons were made to HD2_Y5W, as it is present in CM539, CM452, and CM304. […] Technical replicates are shown as individual data points. […] The response curve (solid blue line) and its 95% confidence interval (grey ribbon) were calculated using a 4-parameter log-logistic plot. The agonist and estimated IC50 (dotted green line) are indicated.
as §1, §2

CXCL11 = molecular target: T3, CXCL11 (Homo sapiens, UniProt O14625); test: CXCL11-induced activated T-cell migration, transwell assay; assay type: cell-based; settings: HD2 mutant peptides 10 μM, chemokine at EC80
T3 construct: purchased Peprotech
T3 sequence (O14625 22-94): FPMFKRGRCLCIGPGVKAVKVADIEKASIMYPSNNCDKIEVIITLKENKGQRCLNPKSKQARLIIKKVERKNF
Method: as §3, §4, §1

CXCL12, sequence (P48061 22-89 limits assumed): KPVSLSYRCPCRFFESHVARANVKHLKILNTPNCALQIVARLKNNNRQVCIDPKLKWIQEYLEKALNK

Molecule | chemotaxis compared with the parental HD2 peptide (CXCL6) | chemotaxis compared with the parental HD2 peptide (CXCL9) | chemotaxis compared with the parental HD2 peptide (CXCL12) | activity in inhibiting migration of activated T cells in comparison to HD2_Y5W (CXCL12; peptides final concentration as printed) | chemotaxis compared with the parental HD2 peptide (CXCL11)
CC(C)C[C@H](NC(=O)[C@@H]1CCCN1C(=O)[C@H](C)NC(=O)[C@H](Cc1ccc(O)cc1)NC(=O)[C@H](C)NC(=O)[C@@H](NC(=O)[C@H](Cc1ccc(O)cc1)NC(=O)[C@H](CC(=O)O)NC(=O)[C@H](CC(=O)O)NC(=O)[C@H](CCC(=O)O)NC(=O)[C@@H](N)CCC(=O)O)[C@@H](C)O)C(=O)N[C@H](C(=O)N[C@@H](CS)C(=O)N[C@@H](Cc1ccc(O)cc1)C(=O)N[C@@H](Cc1ccccc1)C(=O)N[C@@H](CS)C(N)=O)[C@@H](C)O [HD2_C16, EEDDYTAYAPLTCYFC] (H-EEDDYTAYAPLTCYFC-NH2; N-terminus assumed) | significant reduction in chemotaxis | significant reduction in chemotaxis | significant reduction in chemotaxis | potent inhibitor | significant reduction in chemotaxis
EEDDWTAYAPLTCYFT-NH2 [HD2_W5, EEDDWTAYAPLTCYFT] |  | significant reduction in chemotaxis | significant reduction in chemotaxis |  | significant reduction in chemotaxis
EEDDYTAYWPLTCYFT [A9W] | significant reduction in chemotaxis | significant reduction in chemotaxis | significant reduction in chemotaxis |  | significant reduction in chemotaxis
EEDDYWAYAPLTCYFT [HD2_W6] | significant reduction in chemotaxis | significant reduction in chemotaxis |  |  | significant reduction in chemotaxis
